Counter-ions that a name gives are not always drawn.
Key:
[1] = test system: HGPS primary fibroblasts (AG11498 and AG06267); experiment: Misshapen nuclei in HGPS cells; type: cell-based, human; settings: HGPS patient fibroblasts
Description: (§1) U2OS and SaOS-2 osteosarcoma cells, HeLa cervical cancer cells, A431 melanoma cells, NCI-SNU5 gastric cancer cells, MRC-5 lung fibroblast cells and Werner syndrome patient-derived SV40 fibroblast cells were grown in Dulbecco's modified Eagle medium (DMEM, Sigma-Aldrich) supplemented with 10% fetal bovine serum (BioSera), 2 mM L-glutamine, 100 U per ml penicillin, 100 μg ml^−1 streptomycin. Normal skin primary fibroblasts GM03440 and Hutchinson Gilford Progeria Syndrome (HGPS) skin primary fibroblasts AG11498 and AG06297 were purchased from Coriell Cell Repositories and used between passage number 9-12 and 20-23 respectively. Cells were grown in DMEM supplemented as above. RPE-1 retinal pigment epithelial cells were grown in DMEM and Ham F12 mix medium supplemented as above and buffered with sodium bicarbonate. HMV-II melanoma cell line, 22RV1 prostate carcinoma cells, NCI-H82 and NCI-H69 lung carcinoma cells, and NCI-N87 gastric cancer cell lines were grown in RPMI-1640 medium (Sigma-Aldrich) supplemented as above. Stably transfected U2OS cells were maintained in standard medium containing 1 mg ml^−1 G418 (Invitrogen). The siRNA duplexes were obtained from Life Sciences: Lamin A/C stealth RNAi: […] (SEQ ID NO: 1) and […] (SEQ ID NO: 2), NAT10 stealth RNAi: […] (SEQ ID NO: 3), and as control siRNA, stealth RNAi negative control duplexes were used. Plasmid DNA and siRNA transfections were carried out using Lipofectamine 2000 and Lipofectamine RNAiMax (Life Sciences) respectively, following the manufacturer's instructions. Cells were analysed 48 to 72 hours after transfection.
(§2) The following KAT and KDAC inhibitors were used in the nuclear shape rescue screen, incubating cells with the molecules for 16 hours: trichostatin A (1 μM), sodium butyrate (5 mM), tubacin (10 μM), SAHA (5 μM), curcumin (10 μM), garcinol (50 μM), anacardic acid (1 μM), MB-3 (5 μM), 4-(4-chlorophenyl)-2-(2-cyclopentylidenehydrazinyl)thiazole (Compound 2) (50 μM), 4-(4-chlorophenyl)-2-(2-cyclopentylidene-1-(prop-2-yn-1-yl)hydrazinyl)thiazole (Compound 3) (50 μM) and cyclopentylidene-[4-(4-cyanophenyl)thiazol-2-yl)hydrazine (Compound 1) (Remodelin) (10 to 50 μM). For HGPS cellular fitness assays, Remodelin was incubated at 1 μM for 1 to 10 days, renewing the medium every 3 days. For long-term senescence assay, cells were kept and passaged in medium containing 1 μM Remodelin or DMSO only for 12 population doublings. Senescence was assessed after 8 days of Remodelin treatment when cells were at Population Doubling 12, and then after several weeks of Remodelin treatment, when cells reached Population Doubling 24 using the Senescence β-Galactosidase Staining Kit #9860 from Cell Signaling. Nocodazole, colchicine and latrunculin A (Sigma-Aldrich) were used at 200 ng/ml, 1 μg/ml and 1 μM respectively. […]

[2] = test system: Lamin A/C depleted (siLMNA) U2OS cells; experiment: Nuclear shape rescue (DAPI staining, nuclear circularity) in Lamin A/C depleted cells; type: cell-based, human; settings: 16 hours, Compound 2 and 3 50 μM, MB-3 5 μM, FTI 5 μM, nocodazole 200 ng/ml, colchicine 1 μg/ml, latrunculin A 1 μM
Description: as §1
(§3) The following KAT and KDAC inhibitors were used in the nuclear shape rescue screen, incubating cells with the molecules for 16 hours: trichostatin A (1 μM), sodium butyrate (5 mM), tubacin (10 μM), SAHA (5 μM), curcumin (10 μM), garcinol (50 μM), anacardic acid (1 μM), MB-3 (5 μM), 4-(4-chlorophenyl)-2-(2-cyclopentylidenehydrazinyl)thiazole (Compound 2) (50 μM), 4-(4-chlorophenyl)-2-(2-cyclopentylidene-1-(prop-2-yn-1-yl)hydrazinyl)thiazole (Compound 3) (50 μM) and cyclopentylidene-[4-(4-cyanophenyl)thiazol-2-yl)hydrazine (Compound 1) (Remodelin) (10 to 50 μM). For HGPS cellular fitness assays, Remodelin was incubated at 1 μM for 1 to 10 days, renewing the medium every 3 days. For long-term senescence assay, cells were kept and passaged in medium containing 1 μM Remodelin or DMSO only for 12 population doublings. Senescence was assessed after 8 days of Remodelin treatment when cells were at Population Doubling 12, and then after several weeks of Remodelin treatment, when cells reached Population Doubling 24 using the Senescence β-Galactosidase Staining Kit #9860 from Cell Signaling. Nocodazole, colchicine and latrunculin A (Sigma-Aldrich) were used at 200 ng/ml, 1 μg/ml and 1 μM respectively. Aphidicolin (Sigma-Aldrich) was used at 5 μg/ml for 16 h. Farnesyltransferase inhibitor FTI-277 was purchased from Tocris Bioscience and used at 5 μM. ATMi (KU55933) and ATRi (ATR-45) were obtained from Tocris Bioscience and from the Ohio State University respectively and used at 10 μM and 500 nM. Pifithrin alpha (Sigma-Aldrich) was used at 10 μM.
CellProfiler software was used to quantify nuclear circularity and nuclear area from DAPI staining pictures, using the “object size shape” measurement. The AreaShape measurement allowed the calculation of the Form Factor index ([…]) corresponding to circularity (a Form Factor of 1 reflecting a perfect circle), as well as the calculation of nuclear Area.
Lamin A/C was depleted by siRNA in U2OS cells (siLMNA) to induce misshapen nuclei. Cells were then treated for 16 h with various analogues of Compound 2 and nuclear shape rescue was analysed by DAPI staining. The results are shown in FIG. 18 and FIG. 19 which display the structures of the tested molecules and their ability to rescue nuclear shape.

HGPS AG11498 cells = experiment: Senescence-associated β-galactosidase in HGPS cells; type: cell-based, human; settings: HGPS AG11498; Remodelin 1 μM, Pifithrin alpha 10 μM
Description: as §3

[3] = test system: LMNA knock out (KO) U2OS cell line; experiment: Cell growth of LMNA KO versus LMNA WT U2OS cells (IncuCyte ZOOM); type: cell-based, human; settings: U2OS LMNA KO
Excerpt: LMNA knock out (KO) U2OS cell line was engineered using CripR/Cas9 technology. The sensitivity of LMNA KO cells to Compound 2 was compared to cells expressing wild type LMNA (LMNA WT). Cell growth was monitored automatically over time using an IncuCyte ZOOM®. The results are shown in FIG. 21 which has been split into two graphs for easier reading of the curves.

[4] = test system: farnesyltransferase activity (pre-Lamin A cleavage and maturation); experiment: Lamin A processing by western blotting; type: cell-based, human
Description: as §2, with “Signaling.” for “Signaling. Nocodazole, colchicine and latrunculin A (Sigma-Aldrich) were used at 200 ng/ml, 1 μg/ml and 1 μM respectively.”
Total cell extracts were prepared by scraping cells in SDS lysis buffer (4% SDS, 20% glycerol, and 120 mM Tris-HCl, pH 6.8), boiling for 5 minutes at 95° C., followed by 10 strokes through a 25-gauge needle. […] Detection and quantification was performed with an imager (Odyssey; LI-COR Biosciences).

normal human fibroblasts = experiment: Nuclear shape of normal fibroblasts, with or without FTI; type: cell-based
Excerpt: FIG. 11: Remodelin prevents FTI induced nuclear shape defects in non-progeric cells. A) Analysis of Lamin A/C processing after Remodelin or FTI treatment, showing that Remodelin is not a FTI. B) Representative pictures of Lamin A/C IF staining after the indicated treatments. Arrows indicate FTI induced misshapen nuclei in normal fibroblasts. Scale bar: 50 μm. C) Quantification of misshapen nuclei with the indicated cell lines and inhibitor treatments (means of three independent experiments±s.e.m. n>178). D) Representative pictures of DAPI staining showing effects of FTI and Remodelin on nuclear shape of U2OS cells. Scale bars: 20 μm.
U2OS and SaOS-2 osteosarcoma cells, HeLa cervical cancer cells, A431 melanoma cells, NCI-SNU5 gastric cancer cells, MRC-5 lung fibroblast cells and Werner syndrome patient-derived SV40 fibroblast cells were grown in Dulbecco's modified Eagle medium (DMEM, Sigma-Aldrich) supplemented with 10% fetal bovine serum (BioSera), 2 mM L-glutamine, 100 U per ml penicillin, 100 μg ml^−1 streptomycin. […] Cells were analysed 48 to 72 hours after transfection.
as §2, with “For HGPS cellular fitness assays, Remodelin was incubated at 1 μM for 1 to 10 days, renewing the medium every 3 days. For long-term senescence assay, cells were kept and passaged in medium containing 1 μM Remodelin or DMSO only for 12 population doublings.” left out, “Signaling.” for “Signaling. Nocodazole, colchicine and latrunculin A (Sigma-Aldrich) were used at 200 ng/ml, 1 μg/ml and 1 μM respectively.”

[5] = test system: U2OS cells transfected with siCT or siLMNA; experiment: Cell density after cycloheximide (DAPI staining); type: cell-based, human; settings: 24 h treatment
Description: FIG. 16: Compound 2 decreases protein translation of Lamin A/C depleted cells. A) U2OS cells transfected with siRNA control (siCT) or siRNA Lamin A/C (siLMNA) were plated at the same density, treated with cycloheximide (CHX) for 24 h to inhibit protein synthesis and stained with DAPI. […] B) Protein synthesis was measured by quantifying the incorporation of HPG, a clickable analogue of methionine.

[6] = test system: cells (sub-cellular distribution); experiment: Fluorescent labelling of clickable molecules (sub-cellular distribution); type: cell-based; settings: 2 hours pre-incubation, Alexa fluor 488 Azide click
Description: Cells were pre-incubated with clickable molecules Compound 3 or Reference Compound A (1-Chloro-4-ethynilbenzene, purchased from Sigma-Aldrich) for 2 hours before being fixed and permeabilised as described above. Click reaction was prepared using Invitrogen Click-iT reagents with Alexa fluor 488 Azide and incubated with fixed cells for 1 hour in the dark. In case of co-labelling with another protein, the click reaction was performed before the antibody incubations.

COc1cc2c(c(OC)c1OC)-c1ccc(OC)c(=O)cc1[C@@H](NC(C)=O)CC2 [colchicine]
misshapen nuclei / nuclear shape of HGPS cells [1]: also rescued the nuclear shape defects
nuclear shape / nuclear circularity rescue [2]: also rescued the nuclear shape defects of siLMNA cells

Pifithrin [reference compound]
senescence of HGPS cells (β-galactosidase positive cells) (HGPS AG11498 cells): none of these compounds decrease the senescence

FC(F)(F)c1ccc(-c2csc(NN=C3CCCC3)n2)cc1 [Compound 13, 4-(4-Trifluoromethylphenyl)-2-(2-cyclopentylidenehydrazinyl)thiazole Hydrobromide Salt]
potency on LMNA KO cell growth inhibition compared to Compound 2 [3]: increased potency of Compound 13, compared to Compound 2

COC(=O)Nc1nc2ccc(C(=O)c3cccs3)cc2[nH]1 [nocodazole]
misshapen nuclei / nuclear shape of HGPS cells [1]: also rescued the nuclear shape defects
nuclear shape / nuclear circularity rescue [2]: also rescued the nuclear shape defects of siLMNA cells

C/C1=C/C(=O)O[C@@H]2C[C@@H](CC[C@H](C)/C=C\C=C\CC1)O[C@@](O)([C@@H]1CSC(=O)N1)C2 [latrunculin A]
nuclear shape / nuclear circularity rescue [2]: increased nuclear distortion

C=C1C(=O)OC(CCC)C1C(=O)O (stereo not drawn) [MB-3]
nuclear shape / nuclear circularity rescue [2]: did not improve nuclear circularity

COC(=O)[C@H](CCSC)NC(=O)c1ccc(NC[C@@H](N)CS)cc1-c1ccccc1 [FTI, reference compound]
pre-Lamin A processing [4]: caused accumulation of the pre-Lamin A intermediate
misshapen nuclei / nuclear shape of HGPS cells [1]: improves the nuclear shape of HGPS cells
nuclear shape of normal cells (normal human fibroblasts): has the opposite effect on normal cells
nuclear shape / nuclear circularity rescue [2]: does not improve nuclear morphology in LMNA-depleted cells

C[C@@H]1C[C@@H]([C@H](O)CC2CC(=O)NC(=O)C2)C(=O)[C@@H](C)C1 [CHX, cycloheximide]
resistance of siLMNA versus siCT cells to protein synthesis inhibition [5]: siLMNA cells are more resistant to CHX

C#Cc1ccc(Cl)cc1 [Reference Compound A, 1-Chloro-4-ethynilbenzene, reference compound]
sub-cellular distribution of fluorescently labelled molecule [6]: little or no cellular staining
nuclear shape / nuclear circularity rescue [2]: inactive
